In test [1] the target is T1, Bile salt export pump (Homo sapiens, UniProt O95342). The experiment in a line: TP_TRANSPORTER: competitive inhibition of Taurocholate uptake in membrane vesicles prepared from High Five cells infected with the ABCB11 baculovirus. In kind it is functional, cell membranes, BTI-TN-5B1-4, Membrane vesicle.
Test [2] has as its target T1, Bile salt export pump. Put plainly: TP_TRANSPORTER: inhibition of Taurocholate uptake(Rifampicin SV 30uM, 50 % of control) in membrane vesicles prepared from High Five cells infected with the ABCB11 baculovirus. In kind it is functional, cell membranes, BTI-TN-5B1-4, Membrane vesicle.

T1 sequence (O95342 whole entry): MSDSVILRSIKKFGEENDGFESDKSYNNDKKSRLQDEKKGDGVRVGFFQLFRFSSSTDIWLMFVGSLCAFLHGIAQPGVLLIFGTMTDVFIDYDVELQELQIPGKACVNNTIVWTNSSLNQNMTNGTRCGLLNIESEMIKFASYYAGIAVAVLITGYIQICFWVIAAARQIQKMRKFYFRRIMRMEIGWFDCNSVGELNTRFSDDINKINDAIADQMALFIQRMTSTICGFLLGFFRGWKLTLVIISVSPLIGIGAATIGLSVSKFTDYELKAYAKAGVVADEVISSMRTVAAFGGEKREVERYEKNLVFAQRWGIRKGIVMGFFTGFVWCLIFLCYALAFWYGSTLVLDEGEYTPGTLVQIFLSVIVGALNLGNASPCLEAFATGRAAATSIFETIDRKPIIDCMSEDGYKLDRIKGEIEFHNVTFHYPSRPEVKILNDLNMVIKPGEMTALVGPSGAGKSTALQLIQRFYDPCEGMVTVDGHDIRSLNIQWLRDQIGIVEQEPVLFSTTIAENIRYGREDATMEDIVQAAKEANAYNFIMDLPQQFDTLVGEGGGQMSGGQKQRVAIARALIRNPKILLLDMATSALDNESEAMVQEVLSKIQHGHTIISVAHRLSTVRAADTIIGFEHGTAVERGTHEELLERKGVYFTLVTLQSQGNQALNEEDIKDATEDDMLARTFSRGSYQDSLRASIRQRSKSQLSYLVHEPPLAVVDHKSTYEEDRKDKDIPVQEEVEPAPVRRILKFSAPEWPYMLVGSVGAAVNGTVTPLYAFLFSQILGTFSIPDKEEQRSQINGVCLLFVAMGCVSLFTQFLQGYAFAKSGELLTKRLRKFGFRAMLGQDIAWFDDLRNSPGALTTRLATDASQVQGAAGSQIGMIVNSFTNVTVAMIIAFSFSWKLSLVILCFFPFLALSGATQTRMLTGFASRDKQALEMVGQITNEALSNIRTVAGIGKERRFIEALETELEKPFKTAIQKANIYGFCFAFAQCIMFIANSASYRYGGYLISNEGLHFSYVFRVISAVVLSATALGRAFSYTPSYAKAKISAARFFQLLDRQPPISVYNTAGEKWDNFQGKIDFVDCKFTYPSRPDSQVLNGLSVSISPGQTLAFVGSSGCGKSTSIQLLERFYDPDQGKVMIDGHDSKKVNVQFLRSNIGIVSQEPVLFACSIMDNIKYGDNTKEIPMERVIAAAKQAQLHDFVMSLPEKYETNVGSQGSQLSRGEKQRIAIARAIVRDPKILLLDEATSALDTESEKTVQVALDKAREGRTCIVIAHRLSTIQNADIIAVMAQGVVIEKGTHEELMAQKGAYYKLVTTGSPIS

As a reminder, the Ki is the equilibrium dissociation constant of an inhibitor or competing ligand from its target. In the case of `C[C@H](CCC(=O)NCC(=O)O)[C@H]1CC[C@H]2[C@@H]3[C@H](O)C[C@@H]4C[C@H](O)CC[C@]4(C)[C@H]3CC[C@]12C` [GLYCOCHENODEOXYCHOLATE], the Ki on Bile salt export pump [1] was 7 µM.

As to `C[C@H](CCC(=O)NCC(=O)O)[C@H]1CC[C@H]2[C@@H]3[C@H](O)C[C@@H]4C[C@H](O)CC[C@]4(C)[C@H]3C[C@H](O)[C@]12C` [GLYCOCHOLIC ACID], the Ki on Bile salt export pump [1] stood at 11 µM.

On to `CO[C@H]1/C=C/O[C@@]2(C)Oc3c(C)c(O)c4c(O)c(cc(O)c4c3C2=O)NC(=O)/C(C)=C\C=C\[C@H](C)[C@H](O)[C@@H](C)[C@@H](O)[C@@H](C)[C@H](OC(C)=O)[C@@H]1C` [RIFAMYCIN], for which, on Bile salt export pump [2], the Ki was found to be 31 µM.

With `C[C@H](CCC(=O)NCCS(=O)(=O)O)[C@H]1CC[C@H]2[C@@H]3[C@H](O)C[C@@H]4C[C@H](O)CC[C@]4(C)[C@H]3CC[C@]12C` [TAUROCHENODEOXYCHOLATE], the Ki on Bile salt export pump [1] came to 28 µM.

The values above are taken from ChEMBL document CHEMBL2073959, “The human bile salt export pump: characterization of substrate specificity and identification of inhibitors” (Gastroenterology, 2002).
